32 molecules from patent US7662832B2, “Pyrrolo[2,3-c]pyridine derivatives and processes for the preparation thereof” (priority 2004, dated 2010) can be followed below.

What is called IC50 is the midpoint of a concentration-inhibition curve. A lower IC50 goes with greater potency in that assay.

The structures appear in SMILES notation. Where a name gives a salt, the structure may show the parent alone.

This assay deals with Proton Pump (H^+/K^+-ATPase) (Sus scrofa, UniProt P19156). The assay can be described thus: Inhibitory effects on proton pump (H^+/K^+-ATPase) activity. The format is biochemical. To be noted: hog gastric vesicles; K^+ stimulated H^+/K^+-ATPase activity; 30 minutes at 37° C.
Sequence of Proton Pump (H^+/K^+-ATPase) (P19156 2-1034 limits assumed): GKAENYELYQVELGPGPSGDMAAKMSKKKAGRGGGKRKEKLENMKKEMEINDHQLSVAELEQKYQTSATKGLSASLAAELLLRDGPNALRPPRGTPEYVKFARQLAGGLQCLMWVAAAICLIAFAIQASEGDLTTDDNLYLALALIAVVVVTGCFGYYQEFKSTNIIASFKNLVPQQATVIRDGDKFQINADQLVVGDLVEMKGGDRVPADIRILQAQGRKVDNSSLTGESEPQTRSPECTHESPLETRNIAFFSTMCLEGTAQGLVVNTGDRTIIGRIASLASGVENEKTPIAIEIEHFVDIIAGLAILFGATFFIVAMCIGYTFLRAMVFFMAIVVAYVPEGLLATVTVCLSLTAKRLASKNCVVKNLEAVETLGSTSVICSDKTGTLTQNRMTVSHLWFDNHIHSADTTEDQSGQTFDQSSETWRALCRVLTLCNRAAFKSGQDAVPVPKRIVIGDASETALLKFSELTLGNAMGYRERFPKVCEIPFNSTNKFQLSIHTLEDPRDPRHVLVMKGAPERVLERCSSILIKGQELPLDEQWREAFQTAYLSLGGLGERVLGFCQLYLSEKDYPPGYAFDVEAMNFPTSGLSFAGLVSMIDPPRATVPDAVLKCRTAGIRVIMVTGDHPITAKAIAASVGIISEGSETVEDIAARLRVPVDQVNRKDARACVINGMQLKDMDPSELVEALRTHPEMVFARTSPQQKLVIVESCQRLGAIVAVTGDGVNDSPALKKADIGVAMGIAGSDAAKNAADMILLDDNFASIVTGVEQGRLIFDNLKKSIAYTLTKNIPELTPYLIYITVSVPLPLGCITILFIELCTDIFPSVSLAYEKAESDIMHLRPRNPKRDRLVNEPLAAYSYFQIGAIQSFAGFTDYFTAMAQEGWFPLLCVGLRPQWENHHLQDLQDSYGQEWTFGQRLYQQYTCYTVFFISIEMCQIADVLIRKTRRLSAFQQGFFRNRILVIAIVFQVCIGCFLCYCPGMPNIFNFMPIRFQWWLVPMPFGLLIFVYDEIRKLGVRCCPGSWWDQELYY
Sequence of Proton Pump (H^+/K^+-ATPase) (P18434 whole entry partner): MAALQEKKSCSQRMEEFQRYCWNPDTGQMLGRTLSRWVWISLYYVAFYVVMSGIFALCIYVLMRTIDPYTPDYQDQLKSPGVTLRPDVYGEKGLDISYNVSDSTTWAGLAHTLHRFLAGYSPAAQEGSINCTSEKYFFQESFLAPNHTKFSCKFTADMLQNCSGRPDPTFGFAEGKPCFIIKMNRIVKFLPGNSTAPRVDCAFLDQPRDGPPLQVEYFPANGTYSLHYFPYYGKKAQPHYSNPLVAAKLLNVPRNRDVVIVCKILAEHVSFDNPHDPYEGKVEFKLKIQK
Molecule `Cc1c(C)n(CC(C)C)c2c(N3CCc4ccccc4C3)nc(C(=O)N3CCN(C)CC3)cc12` [Example 833, [7-(3,4-dihydro-1H-isoquinolin-2-yl)-1-isobutyl-2,3-dimethyl-1H-pyrrolo[2,3-c]pyridin-5-yl]-(4-methylpiperazin-1-yl)-methanone hydrochloride] came in with an IC50 of 43 nM. This lies in the double-digit nanomolar range.

The molecule `Cc1c(C)n(Cc2ccccc2)c2c(N3CCc4ccccc4C3C)nccc12` (centres unmarked) [Example 556, 2-(1-benzyl-2,3-dimethyl-1H-pyrrolo[2,3-c]pyridin-7-yl)-1-methyl-1,2,3,4-tetrahydroisoquinoline hydrochloride] showed a 50% inhibitory concentration (IC50) of 130 nM.

The molecule `Cc1c(C)n(Cc2cccc(F)c2)c2c(N3CCc4ccc(Cl)cc4C3C)nccc12` (centres unmarked) [Example 539, 7-chloro-2-[1-(3-fluorobenzyl)-2,3-dimethyl-1H-pyrrolo[2,3-c]pyridin-7-yl]-1-methyl-1,2,3,4-tetrahydroisoquinoline hydrochloride] showed an IC50 of 250 nM.

With `Cc1ccc(CNCc2cc3c(C)c(C)n(Cc4cccc(F)c4)c3c(N3CCc4ccccc4C3)n2)cc1` [Example 867, N-[7-(3,4-dihydro-1H-isoquinolin-2-yl)-1-(3-fluorobenzyl)-2,3-dimethyl-1H-pyrrolo[2,3-c]pyridin-5-ylmethyl]-4-methylbenzylamine hydrochloride], half-maximal inhibition (IC50) required 412 nM. Compared with the last molecule, the IC50 is about 1.6-fold higher.

`COCCn1c(C)c(C)c2cc(C(=O)N3CCCCC3)nc(N3CCc4ccccc4C3)c21` [Example 792, [7-(3,4-dihydro-1H-isoquinolin-2-yl)-1-(2-methoxyethyl)-2,3-dimethyl-1H-pyrrolo[2,3-c]pyridin-5-yl]-(piperidin-1-yl)-methanone hydrochloride] registered an IC50 of 59 nM.

`COc1ccc(Cn2c(C)c(C)c3ccnc(N4CCc5ccccc5C4C)c32)cc1` (centres unmarked) [Example 558, 2-[1-(4-methoxybenzyl)-2,3-dimethyl-1H-pyrrolo[2,3-c]pyridin-7-yl]-1-methyl-1,2,3,4-tetrahydroisoquinoline hydrochloride] showed an IC50 of 430 nM.

`CSc1ccc(-c2nccc3c(C)c(C)n(Cc4ccc(F)cc4)c23)cc1` [Example 274, 2,3-dimethyl-1-(4-fluorobenzyl)-7-(4-methylsulfanylphenyl)-1H-pyrrolo[2,3-c]pyridine hydrochloride]: the 50% inhibitory concentration (IC50) is 420 nM.

Turning to `Cc1c(C)n(Cc2ccccc2)c2c(N3CCc4ccccc4C3)nc(C(=O)N3CCOCC3)cc12` [Example 764, [1-benzyl-7-(3,4-dihydro-1H-isoquinolin-2-yl)-2,3-dimethyl-1H-pyrrolo[2,3-c]pyridin-5-yl]-(morpholin-4-yl)-methanone], half-maximal inhibition (IC50) was put at 44 nM.

Molecule `COCCn1c(C)c(C)c2ccnc(N(C)Cc3ccc(F)cc3)c21` [Example 143, 7-[N-(4-fluorobenzyl)-N-methyl]amino-1-(2-methoxyethyl)-2,3-dimethyl-1H-pyrrolo[2,3-c]pyridine hydrochloride] registered a concentration for half-maximal inhibition (IC50) of 300 nM.

For `C=CCn1c(C)c(C)c2ccnc(N3CCc4ccc(Cl)cc4C3C)c21` (centres unmarked) [Example 531, 7-chloro-2-(1-allyl-2,3-dimethyl-1H-pyrrolo[2,3-c]pyridin-7-yl)-1-methyl-1,2,3,4-tetrahydroisoquinoline hydrochloride], 190 nM corresponded to half-maximal inhibition (IC50).

`Cc1c(C)n(Cc2cccc(F)c2)c2c(N3CCc4ccccc4C3)nc(C(=O)n3ccnc3)cc12` [Example 840, [7-(3,4-dihydro-1H-isoquinolin-2-yl)-1-(3-fluorobenzyl)-2,3-dimethyl-1H-pyrrolo[2,3-c]pyridin-5-yl]-(imidazol-1-yl)-methanone hydrochloride] registered a half-inhibitory concentration (IC50) of 169 nM.

For the molecule `CCn1c(C)c(C)c2cc(C(=O)N3CCN(C)CC3)nc(N3CCc4ccccc4C3)c21` [Example 782, [7-(3,4-dihydro-1H-isoquinolin-2-yl)-1-ethyl-2,3-dimethyl-1H-pyrrolo[2,3-c]pyridin-5-yl]-(4-methylpiperazin-1-yl)-methanone hydrochloride], inhibition was half-maximal at 1 nM (IC50).

The molecule `Cc1c(C)n(Cc2ccccc2)c2c(N3CCc4ccccc4C3)nc(CN3CCN(C)CC3)cc12` [Example 883, 2-[1-benzyl-2,3-dimethyl-5-(4-methylpiperazin-1-ylmethyl)-1H-pyrrolo[2,3-c]pyridin-7-yl]-1,2,3,4-tetrahydroisoquinoline hydrochloride] had a half-inhibitory concentration (IC50) of 87 nM.

With `Cc1c(C)n(Cc2ccc(F)cc2)c2c(N(C)Cc3ccc(F)cc3)nccc12` [Example 155, 1-(4-fluorobenzyl)-7-[N-(4-fluorobenzyl)-N-methyl]amino-2,3-dimethyl-1H-pyrrolo[2,3-c]pyridine hydrochloride], the half-maximal inhibitory concentration (IC50) amounted to 400 nM.

Take `CCn1c(C)c(C)c2ccnc(N3CCc4ccccc4C3C3CC3)c21` (centres unmarked) [Example 569, 1-cyclopropyl-2-(1-ethyl-2,3-dimethyl-1H-pyrrolo[2,3-c]pyridin-7-yl)-1,2,3,4-tetrahydroisoquinoline hydrochloride]: the IC50 was 500 nM.

In the case of `Cc1ccc(-c2nccc3c(C)c(C)n(Cc4ccccc4)c23)cc1` [Example 281, 1-benzyl-2,3-dimethyl-7-(p-tolyl)-1H-pyrrolo[2,3-c]pyridine hydrochloride], half-maximal inhibition (IC50) was put at 292 nM.

As to `COc1cccc(Cn2c(C)c(C)c3cc(C(=O)N4CCN(C)CC4)nc(N4CCc5ccccc5C4)c32)c1` [Example 783, [7-(3,4-dihydro-1H-isoquinolin-2-yl)-1-(3-methoxybenzyl)-2,3-dimethyl-1H-pyrrolo[2,3-c]pyridin-5-yl]-(4-methylpiperazin-1-yl)-methanone hydrochloride], the concentration for half-maximal inhibition (IC50) came out at 3 nM.

Regarding `Cc1c(C)n(Cc2cccc(F)c2)c2c(N3CCc4ccccc4C3)nc(CNc3ccc(F)cc3)cc12` [Example 866, N-[7-(3,4-dihydro-1H-isoquinolin-2-yl)-1-(3-fluorobenzyl)-2,3-dimethyl-1H-pyrrolo[2,3-c]pyridin-5-ylmethyl]-4-fluorophenylamine hydrochloride], the half-maximal inhibitory concentration (IC50) worked out at 1030 nM.

Molecule `Cc1cccc(Cn2c(C)c(C)c3cc(C(=O)N4CCN(C)CC4)nc(N4CCc5ccccc5C4)c32)c1` [Example 820, [7-(3,4-dihydro-1H-isoquinolin-2-yl)-2,3-dimethyl-1-(3-methylbenzyl)-1H-pyrrolo[2,3-c]pyridin-5-yl]-(4-methylpiperazin-1-yl)-methanone hydrochloride] showed a half-inhibitory concentration (IC50) of 37 nM. Against the preceding molecule, the IC50 is about 28-fold lower.

In turn, `Cc1ccc(CNc2nccc3c(C)c(C)n(CC(C)C)c23)cc1` [Example 198, 1-isobutyl-2,3-dimethyl-7-(4-methylbenzylamino)-1H-pyrrolo[2,3-c]pyridine hydrochloride] showed an IC50 of 64 nM.

`Cc1c(C)n(Cc2ccccc2)c2c(N3CCc4ccccc4C3)nc(C(=O)N(C)C)cc12` [Example 771, 1-benzyl-7-(3,4-dihydro-1H-isoquinolin-2-yl)-2,3-dimethyl-N-dimethyl-1H-pyrrolo[2,3-c]pyridin-5-carboxamide hydrochloride] showed a half-maximal inhibitory concentration (IC50) of 36 nM.

Take `C=CCn1c(C)c(C)c2ccnc(NCc3ccccc3)c21` [Example 176, 1-allyl-7-benzylamino-2,3-dimethyl-1H-pyrrolo[2,3-c]pyridine hydrochloride]: half-maximal inhibition (IC50) was put at 260 nM. This IC50 is about 7.2-fold higher than that of the molecule before.

On to `Cc1c(C)n(Cc2ccc(Cl)s2)c2c(N3CCc4ccccc4C3)nccc12` [Example 514, 1-(5-chlorothiophene-2-ylmethyl)-7-(1,2,3,4-tetrahydroisoquinolin-2-yl)-2,3-dimethyl-1H-pyrrolo[2,3-c]pyridine hydrochloride], for which half-maximal inhibition (IC50) required 200 nM.

Consider `Cc1c(C)n(Cc2cccc(Cl)c2)c2c(N3CCc4ccccc4C3)nc(C(=O)N3CCCCC3)cc12` [Example 799, [1-(3-chlorobenzyl)-7-(3,4-dihydro-1H-isoquinolin-2-yl)-2,3-dimethyl-1H-pyrrolo[2,3-c]pyridin-5-yl]-(piperidin-1-yl)-methanone hydrochloride], for which the half-maximal inhibitory concentration (IC50) came out at 164 nM.

`CCNC(=O)c1cc2c(C)c(C)n(Cc3ccccc3)c2c(N2CCc3ccccc3C2)n1` [Example 765, 1-benzyl-7-(3,4-dihydro-1H-isoquinolin-2-yl)-2,3-dimethyl-N-ethyl-1H-pyrrolo[2,3-c]pyridin-5-carboxamide] showed an IC50 of 356 nM. This IC50 is about 2.2-fold higher than that of the molecule before.

As to `Cc1c(C)n(CC(C)C)c2c(NCc3ccccc3)nccc12` [Example 184, 7-benzylamino-1-isobutyl-2,3-dimethyl-1H-pyrrolo[2,3-c]pyridine hydrochloride], the IC50 stood at 240 nM.

Molecule `COC(=O)c1cc2c(C)c(C)n(Cc3ccccc3)c2c(N2CCc3ccccc3C2)n1` [Example 743, 1-benzyl-7-(3,4-dihydro-1H-isoquinolin-2-yl)-2,3-dimethyl-1H-pyrrolo[2,3-c]pyridin-5-carboxylic acid methyl ester] gave an IC50 of 231 nM. The IC50 values of the last two molecules are within 1.5-fold of each other.

`C=CCn1c(C)c(C)c2cc(C#N)nc(N3CCc4ccccc4C3)c21` [Example 684, 1-allyl-7-(3,4-dihydro-1H-isoquinolin-2-yl)-2,3-dimethyl-1H-pyrrolo[2,3-c]pyridin-5-carbonitrile]: the half-maximal inhibitory concentration (IC50) was 490 nM.

As to `CCOCCn1c(C)c(C)c2ccnc(N3CCc4ccccc4C3)c21` [Example 503, 1-(2-ethoxyethyl)-7-(1,2,3,4-tetrahydroisoquinolin-2-yl)-2,3-dimethyl-1H-pyrrolo[2,3-c]pyridine hydrochloride], half-maximal inhibition (IC50) required 160 nM.

Turning to `CCCn1c(C)c(C)c2ccnc(-c3ccc4ccccc4c3)c21` [Example 407, 2,3-dimethyl-7-(naphthalen-2-yl)-1-propyl-1H-pyrrolo[2,3-c]pyridine hydrochloride], the midpoint of inhibition, the IC50, lay at 113 nM.

Regarding `CCC1c2ccccc2CCN1c1nccc2c(C)c(C)n(Cc3csc(C)n3)c12` (centres unmarked) [Example 586, 1-ethyl-2-[2,3-dimethyl-1-(2-methylthiazol-4-ylmethyl)-1H-pyrrolo[2,3-c]pyridin-7-yl]-1,2,3,4-tetrahydroisoquinoline hydrochloride], the IC50 was determined as 330 nM. Against the preceding molecule, the IC50 is about 2.9-fold higher.

In the case of `Cc1c(C)n(CC2CC2)c2c(NCc3ccc(Cl)cc3)nccc12` [Example 227, 7-(4-chlorobenzylamino)-1-cyclopropylmethyl-2,3-dimethyl-1H-pyrrolo[2,3-c]pyridine hydrochloride], the IC50 was 73 nM. Compared with the last molecule, the IC50 is about 4.5-fold lower.
